Assay results: patent US11135186B2, “Regulators of the endoplasmic reticulum proteostasis network” (The Scripps Research Institute, priority 2015, dated 2021)

How the values were obtained:
HEK293T-Rex cells = experiment: mRNA-Seq transcriptional profiling and geneset analysis in HEK293T-Rex cells; type: cell-based, human; details: for activation of the ATF6 geneset relative to Tg: mRNA-seq geneset analysis; for BiP mRNA-Seq fold change (relative to Vh) / GRP94 mRNA-Seq fold change (relative to Vh) / SEL1L mRNA-Seq fold change (relative to Vh): ATF6-selective gene; for BiP mRNA-Seq fold change (relative to Vh) / GRP94 mRNA-Seq fold change (relative to Vh) / SEL1L mRNA-Seq fold change (relative to Vh) / DNAJB1 mRNA-Seq fold change (relative to Vh) / HSPA1A mRNA-Seq fold change (relative to Vh) / HSPA8 mRNA-Seq fold change (relative to Vh) / ASNS mRNA-Seq fold change (relative to Vh) / DDIT3 (CHOP) mRNA-Seq fold change (relative to Vh) / TrIB3 mRNA-Seq fold change (relative to Vh) / ERdj3 mRNA-Seq fold change (relative to Vh) / HYOU1 mRNA-Seq fold change (relative to Vh) / p58IPK mRNA-Seq fold change (relative to Vh) / DNAJC10 mRNA-Seq fold change (relative to Vh) / HSPA13 mRNA-Seq fold change (relative to Vh) / SEC24D mRNA-Seq fold change (relative to Vh): compounds 10 μM, Tg 1 μM; for DNAJB1 mRNA-Seq fold change (relative to Vh) / HSPA1A mRNA-Seq fold change (relative to Vh) / HSPA8 mRNA-Seq fold change (relative to Vh): HSF1 target gene; for ASNS mRNA-Seq fold change (relative to Vh) / DDIT3 (CHOP) mRNA-Seq fold change (relative to Vh) / TrIB3 mRNA-Seq fold change (relative to Vh): PERK target gene; for ERdj3 mRNA-Seq fold change (relative to Vh) / HYOU1 mRNA-Seq fold change (relative to Vh) / p58IPK mRNA-Seq fold change (relative to Vh): XBP1s- or ATF6-target gene; for DNAJC10 mRNA-Seq fold change (relative to Vh) / HSPA13 mRNA-Seq fold change (relative to Vh) / SEC24D mRNA-Seq fold change (relative to Vh): XBP1s-selective gene
Procedure: HEK293T-Rex and HEK293^DAX cells in 12-well plates were treated for 6 h with vehicle, 1 μM Tg, 10 μM TMP (in HEK293^DAX), or 10 μM 132, 147 or 263 in biological triplicate at 37° C. Cells were harvested, and RNA was extracted using the RNeasy Mini Kit (Qiagen). Total RNA was quantified using NanoDrop (ND-1000). Samples were run on the Illuina HiSeq system.
Single end, 100 bp-long reads from RNA-Seq experiments were aligned to the GRCh37.p13 human genome reference assembly using SeqMan NGen 11.2.1 (DNAStar, Inc.). The assembly data were then imported into ArrayStar with QSeq (DNAStar, Inc.) to quantify the gene expression levels. The sequence counts were normalized to reads per kilobase per million (RPKM) after filtering out non-mRNA sequence features. The statistical significance of the difference between the expression levels of a gene under different conditions was assessed using a Student's t-test with the Benjamini-Hochberg multiple testing correction.
ATF6- and XBP1s-selective target genes were identified from transcriptional profiles of HEK293D^X cells following stress-independent activation of TMP-dependent DHFR-ATF6 and/or tetracycline inducible XBP1s, as previously described^4. PERK-selective target genes were identified from^8. Only ATF6-, XBP1s- or PERK-selective genes induced >1.5 fold in Tg-treated samples were used in this analysis. The log transformed fold-increase of these target genes in HEK293T-Rex cells treated with the respective ER proteostasis regulators were then normalized to the log transformed fold increase of these genes induced by Tg treatment. The plots shown in FIG. 5b-e were prepared as box and whisker plots using Kaleidograph. Differential activation of the ATF6, XBP1s, and PERK genesets was assessed by one-way ANOVA and significance of pairwise comparison confirmed by unpaired t-test. An analogous strategy was employed to prepare the heat map using transcriptional data from the MGE analysis.

HepG2 cells = experiment: HepG2 viability (CellTiter-Glo); type: cell-based
Procedure: HepG2 cells were plated at 5,000 cells/well in a translucent, flat-bottomed 96 well plate, and treated for 48 hr with vehicle, 10 μM Tg or 10 μM ER proteostasis regulator. ALMC-2 or KAS-6/1 cells were plated at 33,000 cells/well in 96-well plates then treated with proteostasis regulators for 16 h as described. Cell metabolic activity was measured using the CellTiter-Glo assay (Promega), which reports on intracellular ATP concentration. CellTiter-Glo reagent was added to cell culture media at a 1:1 ratio and incubated for 2 minutes on an orbital shaker to induce cell lysis. The plate was then incubated at room temperature for 10 minutes to stabilize the luminescent signal and read on a Tecan F200 Pro microplate reader.

^FTTTR^WT = experiment: [35S] metabolic labeling, secretion of flag-tagged TTR^WT from HepG2^ATF6 cells; type: cell-based; details: 15 h pretreatment, 10 μM compound or 1 μM Tg, 4 h chase
Procedure: HepG2 cells or HEK293T cells plated on poly-D-lysine coated plates were metabolically labeled in DMEM-Cys/-Met (CellGro) supplemented with glutamine, penicillin/streptomycin, dialyzed fetal bovine serum, and EasyTag EXPRESS^35S Protein Labeling Mix (Perkin Elmer) for 30 min. Cells were washed twice with complete media and incubated in prewarmed DMEM for the indicated times. Media or lysates were harvested at the indicated times. Lysates were prepared in RIPA buffer with fresh protease inhibitor cocktail (Roche). FLAG tagged TTR variants or ALLC were immunopurified using M1 anti-FLAG agarose beads (Sigma-Aldrich) and washed three times with RIPA buffer. The immunoisolates were then eluted by boiling in Laemmli buffer and separated on SDS-PAGE. For total secreted media, 15 uL aliquots from media incubated for 4 hrs on pulsed cells were run on a SDS-PAGE. The gels were then dried, exposed to phosphorimager plates (GE Healthcare), and imaged with a Typhoon imager. Band intensities were quantified by densitometry in ImageQuant. Fraction secreted was calculated using the equation: fraction secreted=[extracellular [^35S]-LC signal at t=t/(extracellular [^35S]-LC signal at t=0+intracellular [^35S]-LC signal at t=0)]. Fraction remaining was calculated using the equation: [(extracellular [^35S]-LC signal at t=t+intracellular [^35S]-LC signal at t=t)/(extracellular [^35S]-LC signal at t=0+ intracellular [^35S]-LC signal at t=0)].

[1] = system: BiP expression in ALMC-2 cells; experiment: BiP qPCR in ALMC-2 cells; type: cell-based, human; details: 10 μM, 6 h
Procedure: Cells were treated as described at 37° C., washed with Dulbecco's phosphate-buffered saline (Gibco), and then RNA was extracted using the RNeasy Mini Kit (Qiagen). qPCR reactions were performed on cDNA prepared from 500 ng of total cellular RNA using the QuantiTect Reverse Transcription Kit (Qiagen). The FastStart Universal SYBR Green Master Mix (Roche), cDNA, and appropriate human primers^4 or mouse primers (BiP; […] (SEQ ID NO: 5) and […] (SEQ ID NO: 6) purchased from Integrated DNA Technologies were used for amplifications (45 cycles of 1 min at 95° C., 10 s at 95° C., 30 sec at 60° C.) in an ABI 7900HT Fast Real Time PCR machine. Primer integrity was assessed by a thermal melt to confirm homogeneity and the absence of primer dimers. Transcripts were normalized to the housekeeping gene Rplp2 and all measurements were performed in triplicate. Data were analyzed using the RQ Manager and DataAssist 2.0 softwares (ABI).

SMILES	activation of the ATF6 geneset relative to Tg (HEK293T-Rex cells; 10 μM) [%]	BiP mRNA-Seq fold change (relative to Vh) (HEK293T-Rex cells; 6 h) [fold]	GRP94 mRNA-Seq fold change (relative to Vh) (HEK293T-Rex cells; 6 h) [fold]	SEL1L mRNA-Seq fold change (relative to Vh) (HEK293T-Rex cells; 6 h) [fold]	DNAJB1 mRNA-Seq fold change (relative to Vh) (HEK293T-Rex cells; 6 h) [fold]	HSPA1A mRNA-Seq fold change (relative to Vh) (HEK293T-Rex cells; 6 h) [fold]	HSPA8 mRNA-Seq fold change (relative to Vh) (HEK293T-Rex cells; 6 h) [fold]	ASNS mRNA-Seq fold change (relative to Vh) (HEK293T-Rex cells; 6 h) [fold]	DDIT3 (CHOP) mRNA-Seq fold change (relative to Vh) (HEK293T-Rex cells; 6 h) [fold]	TrIB3 mRNA-Seq fold change (relative to Vh) (HEK293T-Rex cells; 6 h) [fold]	ERdj3 mRNA-Seq fold change (relative to Vh) (HEK293T-Rex cells; 6 h) [fold]	HYOU1 mRNA-Seq fold change (relative to Vh) (HEK293T-Rex cells; 6 h) [fold]	p58IPK mRNA-Seq fold change (relative to Vh) (HEK293T-Rex cells; 6 h) [fold]	DNAJC10 mRNA-Seq fold change (relative to Vh) (HEK293T-Rex cells; 6 h) [fold]	HSPA13 mRNA-Seq fold change (relative to Vh) (HEK293T-Rex cells; 6 h) [fold]	SEC24D mRNA-Seq fold change (relative to Vh) (HEK293T-Rex cells; 6 h) [fold]	HepG2 viability (HepG2 cells; 10 μM)	HepG2 viability (HepG2 cells; 100 μM)	^FTTTR^WT secretion (in words) (^FTTTR^WT)	expression of the ATF6 target gene BiP in ALMC-2 cells [1]	also measured
O=[N+]([O-])c1ccc(N/N=C/c2ccccc2O)cc1 [Compound 263]	50	5.7	2.5	2.7	1.4	2.5	1.3	1.5	2.0	1.3	2.4	2.7	2.9	1.3	1.7	2.1	do not significantly influence	reduce	did not significantly influence	does not significantly induce	–
Cc1ccc(O)c(NC(=O)CCc2ccccc2)c1 [Compound 147]	45	3.3	1.8	2.2	1.6	3.2	1.3	1.0	1.7	1.0	1.7	1.8	1.8	1.1	1.2	1.4	do not significantly influence	reduce	did not significantly influence	induced	–
Cc1ccc(O)c(N/C=C/C(=O)c2ccc(F)cc2)c1 [Compound 132]	75	9.1	3.5	4.9	3.0	9.3	1.5	2.7	10.6	5.8	2.9	3.6	3.7	1.4	2.6	3.1	do not significantly influence	reduce	did not significantly influence	induced	slope of log2 mRNA fold change with compound versus with Tg (HEK293T-Rex cells; 10 μM, 6 h, ER proteostasis genes): 1
